Experimental data reported in patent US20250186456A1, “PYRIMIDINE-FUSED CYCLIC COMPOUND AND PREPARATION METHOD AND USE THEREOF” (Genfleet Therapeutics (Shanghai) Inc., priority 2021, published 2025).
Read-outs that look alike come from different tables or passages of the source.

Legend:
Type in all cases: cell-based, human
[1] = system: p-ERK in AGS cells (KRAS G12D mutation); assay: Cell p-ERK assay (HTRF, Advance ERK phospho-T202/Y204 kit); conditions: AGS cells, 3 hours incubation with compound, HTRF, read-out: AGS p-ERK IC50
Procedure, shortened: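 AGS cells (endogenous KRAS G12D) seeded at ~20000 cells/well overnight, then treated 3 h with 3.16-fold compound dilutions, 0.1% DMSO final. Lysates assayed for phospho-T202/Y204 ERK by HTRF after 4 h antibody incubation; inhibition vs DMSO and blank, IC50 by four-parameter fit.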

AGS cells (KRAS G12D) = assay: Cell proliferation inhibition assay, 3D, CellTiter-Glo 3D, AGS; conditions: AGS 3D sphere model, 5 days incubation
Procedure, shortened: (§1)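 Spheroids (800 AsPC-1 or 400 AGS cells/well; RPMI-1640 or F-12K with 10% FBS) formed overnight, then were dosed on day 2 with a 3.16-fold series at 0.1% DMSO. After 5 days, viability was read by CellTiter-Glo 3D luminescence, and IC50 came from four-parameter fits of inhibition versus DMSO control and medium blank.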

[2] = system: AsPC-1 cells (KRAS G12D mutation); assay: Cell proliferation inhibition assay, 3D, CellTiter-Glo 3D, AsPC-1; conditions: AsPC-1 3D sphere model, 5 days incubation
Procedure, shortened: as §1

Row | IC50 [1] [µM] | IC50 (AGS cells (KRAS G12D)) [µM] | IC50 [2] [µM] | SMILES | IC50 ([1]; Homo sapiens) [µM] | IC50 (AGS cells (KRAS G12D); Homo sapiens, 120 h) [µM] | IC50 ([2]; Homo sapiens, ASPC1, 120 h) [µM]
1 |  |  |  | C#Cc1c(F)ccc2cccc(-c3nc4c5c(nc(OCC6(CN7CCOCC7)CC6)nc5c3F)N3C[C@H]5CC[C@H](N5)[C@H]3[C@H](C)O4)c12 [Example Z693, (58,5aS,6S,9R)-2-(8-ethynyl-7-fluoronaphthalen-1-yl)-1-fluoro-5-methyl-12-((1-(morpholinomethyl)cyclopropyl)methoxy)-5a,6,7,8,9,10-hexahydro-5H-4-oxa-3,10a, 11, 13,14-pentaaza-6,9-methanonaphtho[1,8-ab]heptalene] | 0.00923 | 0.0273 | 0.0311
2 |  |  |  | C#Cc1c(F)ccc2cccc(-c3nc4c5c(nc(OCC67CC(O)CN6CCC7=C)nc5c3F)N3C[C@H]5CC[C@H](N5)[C@H]3[C@H](C)O4)c12 (stereo partly drawn) [Example Z674, 7a-((((5S,5aS,6S,9R)-2-(8-ethynyl-7-fluoronaphthalen-1-yl)-1-fluoro-5-methyl-5a,6,7,8,9,10-hexahydro-5H-4-oxa-3,10a, 11, 13, 14-pentaaza-6,9-methanonaphtho[1,8-ab]heptalen-12-yl)oxy)methyl)-7-methylenehexahydro-1H-pyrrolizin-2-ol] | 0.0107 | 0.108 | 0.475
3 |  |  |  | C#Cc1c(F)ccc2cccc(-c3nc4c5c(nc(OC[C@@]67C[C@@H](F)CN6CCC7=C)nc5c3F)N3C[C@H]5CC[C@H](N5)[C@H]3[C@H](C)O4)c12 (single isomer, unassigned) [Example Z690] | 0.0167 | 0.0315 | 0.0459
4 | 0.00105 | 0.00264 | 0.00178 | C#Cc1cccc2cc(N)cc(-c3nc4c5c(nc(OCC67CC(=C)CN6CC(=C)C7)nc5c3F)N3C[C@H]5CC[C@H](N5)[C@H]3[C@H](C)O4)c12 [Example Z703, 4-((5S,5aS,6S,9R)-12-((2,6-dimethylenetetrahydro-1H-pyrrolizin-7a (5H)-yl)methoxy)-1-fluoro-5-methyl-5a,6,7,8,9,10-gexahydro-5H-4-oxa-3,10a,11,13,14-pentaaza-6,9-methanonaphtho[1,8-ab]heptalene-2-yl)-5-ethynylnaphthalen-2-amine] |  |  | 
5 |  |  |  | C#Cc1c(F)ccc2cccc(-c3nc4c5c(nc(OC[C@@]67CCCN6C[C@H]6C[C@H]67)nc5c3F)N3C[C@H]5CC[C@H](N5)[C@H]3[C@H](C)O4)c12 (single isomer, unassigned) [Example Z627-2] | 0.0593 | 0.0834 | 0.287
6 | 0.00471 | 0.0361 | 0.0777 | C#Cc1c(F)ccc2cccc(-c3nc4c5c(nc(OC[C@]67CC(=C)CN6CC[C@@H]7OC)nc5c3F)N3C[C@H]5CC[C@H](N5)[C@H]3[C@H](C)O4)c12 (single isomer, unassigned) [Example Z695] |  |  | 
7 |  |  |  | C#Cc1c(F)ccc2cccc(-c3nc4c5c(nc(OC[C@@]67CCCN6CC(=C)C7)nc5c3F)N3C[C@H]5CC[C@H](N5)[C@H]3[C@H](C)O4)c12 [Example Z637, (5S,5aS,6S,9R)-2-(8-ethynyl-7-fluoronaphthalen-1-yl)-1-fluoro-5-methyl-12-(((S)-2-methylenetetrahydro-1H-pyrrolizin-7a (5H)-yl)methoxy)-5a,6,7,8,9,10-hexahydro-5H-4-oxa-3,10a,11,13,14-pentaaza-6,9-methanonaphtho[1,8-ab]heptalene] | 0.0488 | 0.0676 | 0.112
8 |  |  |  | C#Cc1cccc2c(F)c(N)cc(-c3nc4c5c(nc(OCC67CC(=C)CN6CC(=C)C7)nc5c3F)N3C[C@H]5CC[C@H](N5)[C@H]3[C@H](C)O4)c12 [Example Z727, 4-((5S,5aS,6S,9R)-12-((2,6-dimethylenetetrahydro-1H-pyrrolizin-7a (5H)-yl)methoxy)-1-fluoro-5-methyl-5a,6,7,8,9,10-hexahydro-5H-4-oxa-3,10a, 11,13,14-pentaaza-6,9-methanonaphtho[1,8-ab]heptalene-2-yl)-5-ethynyl-1-fluoronaphthalen-2-amine] | 0.00501 | 0.0093 | 0.0123
9 |  |  |  | C#Cc1c(F)ccc2cccc(-c3nc4c5c(nc(OCC67CCCN6CC(=C(F)F)C7)nc5c3F)N3C[C@H]5CC[C@H](N5)[C@H]3[C@H](C)O4)c12 (stereo partly drawn) [Example Z608, (5S,5aS,6S,9R)-12-((2-(difluoromethylene)tetrahydro-1H-pyrrolizin-7a (5H)-yl)methoxy)-2-(8-ethynyl-7-fluoronaphthalen-1-yl)-1-fluoro-5-methyl-5a,6,7,8,9,10-hexahydro-5H-4-oxa-3,10a, 11,13,14-pentaaza-6,9-methanonaphtho[1,8-ab]heptalene] | 0.0284 | 0.0823 | 0.146
10 |  |  |  | C#Cc1c(F)ccc2cccc(-c3nc4c5c(nc(OC[C@@]67CCCN6CCC7=C)nc5c3F)N3C[C@H]5CC[C@H](N5)[C@H]3[C@H](C)O4)c12 [Example Z639, (5S,5aS,6S,9R)-2-(8-ethynyl-7-fluoronaphthalen-1-yl)-1-fluoro-5-methyl-12-(((S)-1-methylenetetrahydro-1H-pyrrolizin-7a (5H)-yl)methoxy)-5a,6,7,8,9,10-hexahydro-5H-4-oxa-3,10a, 11, 13,14-pentaaza-6,9-methanonaphtho[1,8-ab]heptalene] | 0.0334 | 0.113 | 0.0937
11 |  |  |  | C#Cc1c(F)ccc2cccc(-c3nc4c5c(nc(OCC67CC(=C)CN6C[C@H]6C[C@H]67)nc5c3F)N3C[C@H]5CC[C@H](N5)[C@H]3[C@H](C)O4)c12 (stereo partly drawn) [Example Z606, (5S,5aS,6S,9R)-2-(8-ethynyl-7-fluoronaphthalen-1-yl)-1-fluoro-5-methyl-12-(((1aS,6bR)-5-methylenehexahydrocyclopropa[a]pyrrolizin-6a (4H)-yl)methoxy)-5a,6,7,8,9,10-hexahydro-5H-4-oxa-3,10a,11,13,14-pentaaza-6,9-methanonaphtho[1,8-ab]heptalene] | 0.874 | 0.908 | 0.802
12 |  |  |  | C#Cc1cccc2cncc(-c3nc4c5c(nc(OCC67CC(=C)CN6C[C@H](F)C7)nc5c3F)N3C[C@H]5CC[C@H](N5)[C@H]3[C@H](C)O4)c12 (stereo partly drawn) [Example Z684, (5S,5aS,6S,9R)-2-(5-ethynylisoquinolin-4-yl)-1-fluoro-12-(((2R)-2-fluoro-6-methylenetetrahydro-1H-pyrrolizin-7a (5H)-yl)methoxy)-5-methyl-5a,6,7,8,9,10-hexahydro-5H-4-oxa-3,10a, 11,13,14-pentaaza-6,9-methanonaphtho[1,8-ab]heptalene] | 0.0575 | 0.341 | 0.326
13 | 0.0375 | 0.0436 | 0.105 | C#Cc1c(F)ccc2cccc(-c3nc4c5c(nc(OCC6(CN7CCC(O)C7)CC6)nc5c3F)N3C[C@H]5CC[C@H](N5)[C@H]3[C@H](C)O4)c12 (stereo partly drawn) [Example Z721] |  |  | 
14 |  |  |  | C#Cc1cccc2cc(N)cc(-c3nc4c5c(nc(O[C@@H]6CCC[C@H]6O)nc5c3F)N3C[C@H]5CC[C@H](N5)[C@H]3[C@H](C)O4)c12 [Example Z718, (1R,2R)-2-(((5S,5aS,6S,9R)-2-(3-amino-8-ethynylnaphthalen-1-yl)-1-fluoro-5-methyl-5a,6,7,8,9,10-hexahydro-5H-4-oxa-3,10a,11,13,14-pentaaza-6,9-methanonaphtho[1,8-ab]heptalen-12-yl)oxy)cyclopentan-1-ol] | 0.157 | 0.455 | 0.429
15 |  |  |  | C#Cc1c(F)ccc2cccc(-c3nc4c5c(nc(OCC67CCCN6CCC7=C(F)F)nc5c3F)N3C[C@H]5CC[C@H](N5)[C@H]3[C@H](C)O4)c12 (stereo partly drawn) [Example Z612, (5S,5aS,6S,9R)-12-((1-(difluoromethylene)tetrahydro-1H-pyrrolizin-7a (5H)-yl)methoxy)-2-(8-ethynyl-7-fluoronaphthalen-1-yl)-1-fluoro-5-methyl-5a,6,7,8,9,10-hexahydro-5H-4-oxa-3,10a, 11,13,14-pentaaza-6,9-methanonaphtho[1,8-ab]heptalene] | 0.0993 | 0.0654 | 0.124
16 |  |  |  | C#Cc1cccc2cc(N)cc(-c3nc4c5c(nc(OCC67CC(=C)CN6CC(F)(F)C7)nc5c3F)N3C[C@H]5CC[C@H](N5)[C@H]3[C@H](C)O4)c12 (stereo partly drawn) [Example Z711, 4-((5S,5aS,6S,9R)-12-((2,2-difluoro-6-methylenetetrahydro-1H-pyrrolizin-7a (5H)-yl)methoxy)-1-fluoro-5-methyl-5a,6,7,8,9,10-hexahydro-5H-4-oxa-3,10a,11,13,14-pentaaza-6,9-methanonaphtho[1,8-ab]heptalen-2-yl)-5-ethynylnaphthalen-2-amine] | 0.0133 | 0.0542 | 0.0856
17 |  |  |  | C#Cc1c(F)ccc2cccc(-c3nc4c5c(nc(OCC67CC(=C)CN6CCC7CO)nc5c3F)N3C[C@H]5CC[C@H](N5)[C@H]3[C@H](C)O4)c12 (stereo partly drawn) [Example Z683, (7a-((((5S,5aS,6S,9R)-2-(8-ethynyl-7-fluoronaphthalen-1-yl)-1-fluoro-5-methyl-5a,6,7,8,9,10-hexahydro-5H-4-oxa-3,10a,11,13,14-pentaaza-6,9-methanonaphtho[1,8-ab]heptalen-12-yl)oxy)methyl)-6-methylenehexahydro-1H-pyrrolizin-1-yl)methanol] | 0.00584 | 0.0227 | 0.079
